Each structure is given as a SMILES string. Values after ≈ are worked out from the molar mass of the structure shown.

The text below walks through data of patent US8916526B2, “Flavanone derivative” (National University Corporation Okayama University, priority 2009, dated 2014).

One experiment concerns MRSA OM58. The experiment can be described thus: In vitro infectivity assay (MIC), broth dilution, Exp. Ex. 1-1. Conditions: MRSA OM58, Mueller-Hinton broth, 35° C., 24 hours. In kind it is cell-based, Staphylococcus aureus. The method, then: (§1) The antibacterial activities were measured based on broth dilution techniques of international standards (Clinical Laboratory Standards Institute: CLSI). The activities were shown by minimum inhibitory concentrations (MICs) determined by inoculating the above-mentioned strains at a concentration of about 10^5 […] into Mueller-Hinton broth (manufactured by Difco) containing 0.85% NaCl in 96-well microplates and incubating the plates at 35° C. for 24 hours. Measurement was carried out three times.
(§2) The antibacterial activities of the compounds of the present invention against various strains such as methicillin-resistant Staphylococcus aureus (MRSA), vancomycin intermediate-resistant Staphylococcus aureus (VISA), methicillin-sensitive Staphylococcus aureus (MSSA), and vancomycin-resistant enterococci (VRE) were examined. Of the bacteria used in MIC measurement in this test example, clinical bacteria of MRSA (OM481 strain and OM584 strain) were supplied from Okayama University Hospital (Japan). An MRSA strain N315, a vancomycin intermediate-resistant Staphylococcus aureus (VISA) strain Mu50, and a methicillin-sensitive Staphylococcus aureus (MSSA) strain FDA 209P were used as controls. Vancomycin-resistant enterococcus (VRE) strains NCTC 12201 and FN-1 were supplied from the National Institute of Infectious Disease (Japan).
For orientation: Dilution methods test growth across graded concentrations, often in twofold steps.

In another experiment the test system is MRSA N315. The experiment is described as above. In kind it is cell-based, Staphylococcus aureus. Conditions: MRSA N315, Mueller-Hinton broth, 35° C., 24 hours. The method, then: as §1, §2
The subject of another experiment is MSSA FDA 209P. The experiment is described as above. The note with it: MSSA FDA 209P, Mueller-Hinton broth, 35° C., 24 hours. It is filed as cell-based, Staphylococcus aureus. The protocol: as §1, §2
The subject of the next experiment is MRSA OM481. The experiment is described as above. In kind it is cell-based, Staphylococcus aureus. Conditions: MRSA OM481, Mueller-Hinton broth, 35° C., 24 hours. The protocol: as §1, §2
For another experiment, the target named is T1, E. coli DNA gyrase (Escherichia coli, UniProt P0AES4+P0AES6).
T1 construct: purchased John Innes Enterprises #K0001
T1 sequence (P0AES4 whole entry, one chain of several): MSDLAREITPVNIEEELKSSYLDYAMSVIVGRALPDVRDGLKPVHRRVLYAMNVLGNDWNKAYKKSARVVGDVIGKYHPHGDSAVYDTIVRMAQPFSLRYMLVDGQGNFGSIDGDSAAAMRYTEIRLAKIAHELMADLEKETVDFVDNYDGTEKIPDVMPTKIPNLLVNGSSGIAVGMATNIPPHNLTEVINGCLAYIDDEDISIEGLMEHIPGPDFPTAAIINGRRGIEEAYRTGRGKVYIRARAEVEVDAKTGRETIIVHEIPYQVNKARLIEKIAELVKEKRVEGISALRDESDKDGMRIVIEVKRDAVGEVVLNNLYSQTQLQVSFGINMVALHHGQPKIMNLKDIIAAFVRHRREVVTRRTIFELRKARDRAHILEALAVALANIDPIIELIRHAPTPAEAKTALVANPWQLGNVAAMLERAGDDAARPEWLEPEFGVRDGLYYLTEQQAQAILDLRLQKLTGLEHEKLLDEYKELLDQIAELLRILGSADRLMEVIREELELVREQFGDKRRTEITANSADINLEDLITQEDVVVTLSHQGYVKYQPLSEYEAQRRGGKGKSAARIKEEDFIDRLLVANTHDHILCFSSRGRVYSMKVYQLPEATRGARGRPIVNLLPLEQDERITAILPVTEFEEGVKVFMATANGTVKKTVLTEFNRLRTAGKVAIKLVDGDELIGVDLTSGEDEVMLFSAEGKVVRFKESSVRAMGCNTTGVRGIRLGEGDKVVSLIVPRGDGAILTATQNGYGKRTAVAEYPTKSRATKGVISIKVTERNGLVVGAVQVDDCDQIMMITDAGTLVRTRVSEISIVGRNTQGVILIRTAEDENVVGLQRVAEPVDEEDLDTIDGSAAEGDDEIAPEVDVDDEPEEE
Put plainly: DNA gyrase inhibition (supercoiling kit), Exp. Ex. 2-2. In kind it is biochemical. The protocol: (§3) As a kit for measurement of DNA gyrase of Escherichia coli, a product purchased from John Innes Enterprises (Gyrase Supercoiling assay kit #K0001) was used. Relaxed DNA was modified with gyrase into supercoiled DNA, and reaction products were separated by electrophoresis depending on the sizes of the molecular weights to examine anti-gyrase effects (IC50). 1 unit (1 U) of DNA gyrase and […] of relaxed pBR322 DNA were added to […] of the reaction solution, and the mixture was allowed to react at 37° C. for 30 minutes in the presence of 35 mM Tris-HCl (pH 7.5), 24 mM KCl, 4 mM MgCl2, 2 mM DTT, 1.8 mM spermidine, 1 mM ATP, 6.5% (w/v) glycerol, and 0.1 mg/ml BSA. The reactions were stopped using […] of a reaction stop solution (40% sucrose, 100 mM Tris-HCl (pH 7.5), 1 mM EDTA, 0.5 mg/ml bromophenol blue).

Experiment [1] has as its system Streptococcus pneumoniae R6. Put plainly: In vitro infectivity assay (MIC), Exp. Ex. 2-1. In kind it is cell-based. Conditions: Streptococcus pneumoniae, R6, 24 h, read-out: MIC S. Pneumoniae R6.
For experiment [2], the system named is Methicillin-resistant S. aureus OM584. Put plainly: In vitro infectivity assay (MIC), Exp. Ex. 2-1. It is filed as cell-based, Staphylococcus aureus. The note with it: Staphylococcus aureus, MRSA; Gram-positive; microdilution, MIC after 24 h; read-out: MIC MRSA OM584. The method, then: as §1
as §2, with “vancomycin-resistant enterococci (VRE),” for “methicillin-resistant Staphylococcus aureus (MRSA),”, “(VISA), methicillin-resistant Staphylococcus aureus (MRSA), and” for “(VISA),”, “(MSSA)” for “(MSSA), and vancomycin-resistant enterococci (VRE)”

In experiment [3] the test system is Methicillin-resistant S. aureus N315. The experiment can be described thus: In vitro infectivity assay (MIC), Exp. Ex. 2-1. In kind it is cell-based, Staphylococcus aureus. Conditions: Staphylococcus aureus, MRSA; Gram-positive; microdilution, MIC after 24 h; read-out: MIC MRSA N315. The method, then: as §1
as §2, with “vancomycin-resistant enterococci (VRE),” for “methicillin-resistant Staphylococcus aureus (MRSA),”, “(VISA), methicillin-resistant Staphylococcus aureus (MRSA), and” for “(VISA),”, “(MSSA)” for “(MSSA), and vancomycin-resistant enterococci (VRE)”

For experiment [4], the system named is Methicillin-resistant S. aureus OM481. Put plainly: In vitro infectivity assay (MIC), Exp. Ex. 2-1. In kind it is cell-based, Staphylococcus aureus. Conditions: Staphylococcus aureus, MRSA; Gram-positive; microdilution, MIC after 24 h; read-out: MIC MRSA OM481. The method, then: as §1
as §2, with “vancomycin-resistant enterococci (VRE),” for “methicillin-resistant Staphylococcus aureus (MRSA),”, “(VISA), methicillin-resistant Staphylococcus aureus (MRSA), and” for “(VISA),”, “(MSSA)” for “(MSSA), and vancomycin-resistant enterococci (VRE)”

The subject of experiment [5] is Methicillin sensitive S. aureus 209P. Put plainly: In vitro infectivity assay (MIC), Exp. Ex. 2-1. It is filed as cell-based, Staphylococcus aureus. The note with it: Staphylococcus aureus, 209P / MSSA; Gram-positive; microdilution, MIC after 24 h; read-out: MIC MSSA 209P. The protocol: as §1
as §2, with “vancomycin-resistant enterococci (VRE),” for “methicillin-resistant Staphylococcus aureus (MRSA),”, “(VISA), methicillin-resistant Staphylococcus aureus (MRSA), and” for “(VISA),”, “(MSSA)” for “(MSSA), and vancomycin-resistant enterococci (VRE)”

The subject of experiment [6] is Methicillin-resistant S. aureus COL. Put plainly: In vitro infectivity assay (MIC), Exp. Ex. 2-1. In kind it is cell-based, Staphylococcus aureus. Conditions: Staphylococcus aureus, MRSA; Gram-positive; microdilution, MIC after 24 h. The protocol: as §1
as §2, with “vancomycin-resistant enterococci (VRE),” for “methicillin-resistant Staphylococcus aureus (MRSA),”, “(VISA), methicillin-resistant Staphylococcus aureus (MRSA), and” for “(VISA),”, “(MSSA)” for “(MSSA), and vancomycin-resistant enterococci (VRE)”

Experiment [7] has as its target T2, DNA gyrase of Escherichia coli (Escherichia coli, UniProt P0AES4+P0AES6).
T2 construct: purchased John Innes Enterprises #K0001
Put plainly: DNA gyrase inhibition (supercoiling assay kit), Exp. Ex. 1-2. In kind it is biochemical. The note with it: E. coli DNA gyrase supercoiling, relaxed pBR322, 37° C., 30 minutes. The method, then:
as §3, with “(IC50). One” for “(IC50). 1”

The subject of the next experiment is Escherichia coli K-12. The experiment can be described thus: Antibacterial activity (MIC) against Gram-negative strains, microdilution. It is filed as cell-based. Conditions: K12, MIC after 24 h, read-out: MIC (Gram-nagative) K-12. The protocol: as §1
Experiment [8] relates to Pseodomonas aeruginosa PAOI. Described as above. In kind it is cell-based. Conditions: MIC after 24 h, read-out: MIC (Gram-nagative) PAO1. The protocol: as §1
A further experiment relates to VISA Mu50. Put plainly: In vitro infectivity assay (MIC), broth dilution, Exp. Ex. 1-1. It is filed as cell-based, Staphylococcus aureus. Conditions: VISA Mu50; Mueller-Hinton broth, 35° C., 24 hours. The method, then:
as §1, §2

A further experiment deals with VRE FN-1. The experiment is described as above. In kind it is cell-based, enterococci. Conditions: VRE FN-1; Mueller-Hinton broth, 35° C., 24 hours. The method, then:
as §1, §2

For another experiment, the system named is VRE NCTC12201. Described as above. The note with it: VRE NCTC12201; Mueller-Hinton broth, 35° C., 24 hours. In kind it is cell-based, enterococci. The method, then: as §1, §2

T2 sequence (P0AES4 whole entry, one chain of several): as above

For orientation: MIC means the lowest concentration found to suppress growth. In general, IC50 refers to the concentration that gives 50% inhibition. In the case of `CCn1cc(C(=O)O)c(=O)c2cc(F)c(N3CCNCC3)cc21` [Norfloxacin, norfloxacin, reference compound], the MIC is 64 µg/mL (≈ 200 µM) in the experiment with MRSA OM58 (Staphylococcus aureus, read-out: MIC MRSA OM58); 2 µg/mL (≈ 6.26 µM) with MRSA N315 (Staphylococcus aureus, read-out: MIC MRSA N315); 0.5 µg/mL (≈ 1.57 µM) with MSSA FDA 209P (Staphylococcus aureus, read-out: MIC MSS 209P); 128 µg/mL (≈ 401 µM) with MRSA OM481 (Staphylococcus aureus, read-out: MIC MRSA OM481); 0.25 µg/mL (≈ 0.783 µM) in [1]; 128 µg/mL (≈ 401 µM) in experiment [2]. Moreover, the minimal inhibitory concentration (MIC) in experiment [3] turned out to be 2 µg/mL (≈ 6.26 µM); in [4], 64 µg/mL (≈ 200 µM); in experiment [5], 0.5 µg/mL (≈ 1.57 µM); in experiment [6], 1 µg/mL (≈ 3.13 µM); in the experiment with Escherichia coli K-12, 0.25 µg/mL (≈ 0.783 µM); in experiment [8], 0.25 µg/mL (≈ 0.783 µM). For the same compound, the results for the concentration for half-maximal inhibition (IC50) (against E. coli DNA gyrase; in experiment [7] (read-out: Gyrase inhibitory activity IC50 (converted))) were 90 nM and 908 nM, respectively.
In the case of `O=C(CCc1ccc(O)cc1)O[C@H]1[C@H](Oc2c(-c3ccc(O)c(O)c3)oc3cc(O)cc(O)c3c2=O)O[C@H](CO)[C@@H](O)[C@@H]1OC(=O)CCc1ccc(O)cc1` [Compound 15a, 2-(3′,4′-Dihydroxy)-5,7-dihydroxy-3-β-D-(2″,3″-di-p-hydroxyphenylethylcarboxy)glucosyl-4H-chromen-4-one], the “MIC MRSA OM58” value against MRSA OM58 is 4 µg/mL (≈ 5.26 µM). In addition, in the experiment with VISA Mu50, the “MIC VISA Mu50” value is 4 µg/mL (≈ 5.26 µM). Also, the “MIC MRSA N315” value against MRSA N315 was found to be 4 µg/mL (≈ 5.26 µM). Also, the “MIC MSS 209P” value with MSSA FDA 209P was 4 µg/mL (≈ 5.26 µM). Moreover, the “MIC MRSA OM481” value in the experiment with MRSA OM481 stood at 4 µg/mL (≈ 5.26 µM). For the same compound, in the experiment with VRE FN-1, the “MIC VRE FN-1” value came out at 8 µg/mL (≈ 10.5 µM). Also, in the experiment with VRE NCTC12201, the “MIC VRE NCTC 12201” value came to 8 µg/mL (≈ 10.5 µM). Besides, the “Gyrase inhibitory activity IC50” value in experiment [7] turned out to be 2.54 µg/mL.
